The values below come from US11382918B2, “Methods for treating Huntington's Disease” (PTC Therapeutics, Inc., priority 2017, dated 2022).

Each structure is given as a SMILES string.

The assay relates to Endogenous Huntingtin Protein (HTT). Put plainly: Endogenous Huntingtin Protein Assay (ELISA-based MSD electrochemiluminescence). Conditions: Table 1. It counts as cell-based. As to the method: Compounds of Formula (I) were tested using the Meso Scale Discovery (MSD) Assay provided in International Application No. PCT/US2016/066042, filed on Dec. 11, 2016 and claiming priority to U.S. Provisional Application 62/265,652 filed on Dec. 10, 2015, published as International Publication No. WO 2017/100726 on Jun. 15, 2017, the entire contents of which are incorporated herein by reference.
The Endogenous Huntingtin Protein assay used in Example 1 was developed using the ELISA-based MSD electrochemiluminescence assay platform.
Endogenous Huntingtin Protein Assay
Meso Scale Discovery (MSD) 96-well or 384-well plates were coated overnight at 4° C. with MW1 (expanded polyglutamine) or MAB2166 monoclonal antibody (for capture) at a concentration of 1 μg/mL in PBS (30 μL per well). Plates were then washed three times with 300 µL wash buffer (0.05% Tween-20 in PBS) and blocked (100 μL blocking buffer; 5% BSA in PBS) for 4-5 hours at room temperature with rotational shaking and then washed three times with wash buffer.
Samples (25 μL) were transferred to the antibody-coated MSD plate and incubated overnight at 4° C. After removal of the lysates, the plate was washed three times with wash buffer, and 25 μL of #5656S (Cell signaling; rabbit monoclonal) secondary antibody (diluted to 0.25 μg/mL in 0.05% Tween-20 in blocking buffer) was added to each well and incubated with shaking for 1 Hour at room temperature. Following incubation with the secondary antibody, the wells were rinsed with wash buffer after which 25 μL of goat anti-rabbit SULFO TAG secondary detection antibody (required aspect of the MSD system) (diluted to 0.25 μg/mL in 0.05% Tween-20 in blocking buffer) was added to each well and incubated with shaking for 1 hour at room temperature. After rinsing three times with wash buffer, 150 μL of read buffer T with surfactant (MSD) were added to each empty well, and the plate was imaged on a SI 6000 imager (MSD) according to manufacturers' instructions provided for 96- or 384-well plates.
For `Cc1ccc2nc(-c3cc(=O)n4cc(N5CCNCC5)ccc4n3)cn2c1` [compound 29, 2-(6-methylimidazo[1,2-a]pyridin-2-yl)-7-(piperazin-1-yl)-4H-pyrido[1,2-a]pyrimidin-4-one], the IC50 – broadly, the point on the concentration scale where inhibition reaches its midpoint – fell in the range of 3000 to 33000 nM. Compound `COc1ccc(-c2cc(=O)n3cc(N4CCNCC4)ccc3n2)cc1F` [compound 72, 2-(3-fluoro-4-methoxyphenyl)-7-(piperazin-1-yl)-4H-pyrido[1,2-a]pyrimidin-4-one] yielded an IC50 of 3000 to 33000 nM. As to `Cc1cn2cc(-c3cc(=O)n4cc(N5CCNCC5)ccc4n3)nc2cn1` [compound 74, 2-(6-methylimidazo[1,2-a]pyrazin-2-yl)-7-(piperazin-1-yl)-4H-pyrido[1,2-a]pyrimidin-4-one], the IC50 lay in the range of 1000 to 3000 nM. To `Cc1cn2cc(-c3cc(=O)n4cc(N5CCN[C@@H](C)C5)ccc4n3)nc2cn1` [compound 75, 2-(6-methylimidazo[1,2-a]pyrazin-2-yl)-7-[(3S)-3-methylpiperazin-1-yl]-4H-pyrido[1,2-a]pyrimidin-4-one] belongs 1000 to 3000 nM; to `COc1ccc(-c2cc(=O)n3cc(N4CCNCC4)ccc3n2)cn1` [compound 88, 2-(6-methoxypyridin-3-yl)-7-(piperazin-1-yl)-4H-pyrido[1,2-a]pyrimidin-4-one], 3000 to 33000 nM. In the case of `O=c1cc(-c2cncc(Cl)c2)nc2ccc(N3CCNCC3)cn12` [compound 94, 2-(5-chloropyridin-3-yl)-7-(piperazin-1-yl)-4H-pyrido[1,2-a]pyrimidin-4-one] it was 3000 to 33000 nM. `COc1ncc(-c2cc(=O)n3cc(N4CCNCC4)ccc3n2)cc1Cl` [compound 96, 2-(5-chloro-6-methoxypyridin-3-yl)-7-(piperazin-1-yl)-4H-pyrido[1,2-a]pyrimidin-4-one]: the IC50 was 3000 to 33000 nM. To `O=c1cc(-c2ccn3ccnc3c2)nc2ccc(N3CCNCC3)cn12` [compound 107, 2-(imidazo[1,2-a]pyridin-7-yl)-7-(piperazin-1-yl)-4H-pyrido[1,2-a]pyrimidin-4-one] belongs 3000 to 33000 nM. As for `O=c1cc(-c2ccc3nccn3c2)nc2ccc(N3CCNCC3)cn12` [compound 108, 2-(imidazo[1,2-a]pyridin-6-yl)-7-(piperazin-1-yl)-4H-pyrido[1,2-a]pyrimidin-4-one], the IC50 lay within 3000 to 33000 nM. Consider `Cc1cn2cc(-c3cc(=O)n4cc(N5CCNCC5)ccc4n3)ccc2n1` [compound 109, 2-(2-methylimidazo[1,2-a]pyridin-6-yl)-7-(piperazin-1-yl)-4H-pyrido[1,2-a]pyrimidin-4-one], for which the IC50 fell in the range of 1000 to 3000 nM. In the case of `Cc1cn2cc(-c3cc(=O)n4cc(N5CCN(C)CC5)ccc4n3)ccc2n1` [compound 114, 2-(2-methylimidazo[1,2-a]pyridin-6-yl)-7-(4-methylpiperazin-1-yl)-4H-pyrido[1,2-a]pyrimidin-4-one] it was 3000 to 33000 nM; in that of `Cc1cn2cc(-c3cc(=O)n4cc(N5CCNCC5)ccc4n3)nc2c(C)n1` [compound 118, 2-(6,8-dimethylimidazo[1,2-a]pyrazin-2-yl)-7-(piperazin-1-yl)-4H-pyrido[1,2-a]pyrimidin-4-one], 3000 to 33000 nM. In the case of `Cc1cn2nc(-c3cc(=O)n4cc(N5CCNCC5)ccc4n3)cc2c(C)n1` [compound 120, 2-(4,6-dimethylpyrazolo[1,5-a]pyrazin-2-yl)-7-(piperazin-1-yl)-4H-pyrido[1,2-a]pyrimidin-4-one] it was 1000 to 3000 nM. `Cc1cn2nc(-c3cc(=O)n4cc(N5CCN[C@@H](C)C5)ccc4n3)cc2c(C)n1` [compound 121, 2-(4,6-dimethylpyrazolo[1,5-a]pyrazin-2-yl)-7-[(3S)-3-methylpiperazin-1-yl]-4H-pyrido[1,2-a]pyrimidin-4-one]: the IC50 is 3000 to 33000 nM. In the case of `O=c1cc(-c2ccc3nc(C(F)(F)F)cn3c2)nc2ccc(N3CCNCC3)cn12` [compound 123, 7-(piperazin-1-yl)-2-[2-(trifluoromethyl)imidazo[1,2-a]pyridin-6-yl]-4H-pyrido[1,2-a]pyrimidin-4-one] it was 3000 to 33000 nM; in that of `CCc1cn2cc(-c3cc(=O)n4cc(N5CCNCC5)ccc4n3)ccc2n1` [compound 124, 2-(2-ethylimidazo[1,2-a]pyridin-6-yl)-7-(piperazin-1-yl)-4H-pyrido[1,2-a]pyrimidin-4-one], 3000 to 33000 nM; in that of `Cc1nc2ccc(-c3cc(=O)n4cc(N5CCNCC5)ccc4n3)cn2c1C` [compound 125, 2-(2,3-dimethylimidazo[1,2-a]pyridin-6-yl)-7-(piperazin-1-yl)-4H-pyrido[1,2-a]pyrimidin-4-one], 3000 to 33000 nM. As to `O=c1cc(-c2cnc3[nH]ccc3c2)nc2ccc(N3CCNCC3)cn12` [compound 128, 7-(piperazin-1-yl)-2-(1H-pyrrolo[2,3-b]pyridin-5-yl)-4H-pyrido[1,2-a]pyrimidin-4-one], the IC50 is 3000 to 33000 nM. To `Cn1ccc2cc(-c3cc(=O)n4cc(N5CCNCC5)ccc4n3)cnc21` [compound 129, 2-(1-methyl-1H-pyrrolo[2,3-b]pyridin-5-yl)-7-(piperazin-1-yl)-4H-pyrido[1,2-a]pyrimidin-4-one] belongs 3000 to 33000 nM; to `Cc1cn2nc(-c3cc(=O)n4cc(N5C[C@@H](C)N[C@@H](C)C5)ccc4n3)cc2c(C)n1` [compound 131, 7-[(3R,5S)-3,5-dimethylpiperazin-1-yl]-2-(4,6-dimethylpyrazolo[1,5-a]pyrazin-2-yl)-4H-pyrido[1,2-a]pyrimidin-4-one], 3000 to 33000 nM. `Cc1nc2ccc(-c3cc(=O)n4cc(N5CCNCC5)ccc4n3)cc2o1` [compound 133, 2-(2-methyl-1,3-benzoxazol-6-yl)-7-(piperazin-1-yl)-4H-pyrido[1,2-a]pyrimidin-4-one] had an IC50 of 500 to 1000 nM. In the case of `Cc1nc2cc(-c3cc(=O)n4cc(N5CCN[C@@H](C)C5)ccc4n3)ccc2s1` [compound 135, 2-(2-methyl-1,3-benzothiazol-5-yl)-7-[(3S)-3-methylpiperazin-1-yl]-4H-pyrido[1,2-a]pyrimidin-4-one] it was 1000 to 3000 nM; in that of `Cc1nc2cc(-c3cc(=O)n4cc(N5CCNCC5)ccc4n3)ccc2s1` [compound 136, 2-(2-methyl-1,3-benzothiazol-5-yl)-7-(piperazin-1-yl)-4H-pyrido[1,2-a]pyrimidin-4-one], 3000 to 33000 nM; in that of `Cn1cc2cc(-c3cc(=O)n4cc(N5CCNCC5)ccc4n3)ccc2n1` [compound 137, 2-(2-methyl-2H-indazol-5-yl)-7-(piperazin-1-yl)-4H-pyrido[1,2-a]pyrimidin-4-one], 1000 to 3000 nM. Consider `C[C@H]1CN(c2ccc3nc(-c4ccc5nn(C)cc5c4)cc(=O)n3c2)CCN1` [compound 138, 2-(2-methyl-2H-indazol-5-yl)-7-[(3S)-3-methylpiperazin-1-yl]-4H-pyrido[1,2-a]pyrimidin-4-one], for which the IC50 is 1000 to 3000 nM. In the case of `Cc1cn2cc(-c3cc(=O)n4cc(N5CCNCC5)ccc4n3)cc(C)c2n1` [compound 141, 2-(2,8-dimethylimidazo[1,2-a]pyridin-6-yl)-7-(piperazin-1-yl)-4H-pyrido[1,2-a]pyrimidin-4-one] it was 1000 to 3000 nM; in that of `Cc1csc(-c2cc(=O)n3cc(N4CCN[C@@H](C)C4)ccc3n2)n1` [compound 162, 7-[(3S)-3-methylpiperazin-1-yl]-2-(4-methyl-1,3-thiazol-2-yl)-4H-pyrido[1,2-a]pyrimidin-4-one], 3000 to 33000 nM; in that of `Cc1csc(-c2cc(=O)n3cc(N4CCNCC4)ccc3n2)n1` [compound 163, 2-(4-methyl-1,3-thiazol-2-yl)-7-(piperazin-1-yl)-4H-pyrido[1,2-a]pyrimidin-4-one], 3000 to 33000 nM.

Compound `Cc1cn2nc(-c3cc(=O)n4cc(N5CCN(C)CC5)ccc4n3)cc2c(C)n1` [compound 170, 2-(4,6-dimethylpyrazolo[1,5-a]pyrazin-2-yl)-7-(4-methylpiperazin-1-yl)-4H-pyrido[1,2-a]pyrimidin-4-one] yielded an IC50 of 3000 to 33000 nM. `Cc1cn(-c2cc(=O)n3cc(N4CCNCC4)ccc3n2)cn1` [compound 179, 2-(4-methyl-1H-imidazol-1-yl)-7-(piperazin-1-yl)-4H-pyrido[1,2-a]pyrimidin-4-one] displayed an IC50 of 3000 to 33000 nM.

Compound `C[C@H]1CN(c2ccc3nc(-c4cnn(C)c4)cc(=O)n3c2)CCN1` [compound 191, 7-[(3S)-3-methylpiperazin-1-yl]-2-(1-methyl-1H-pyrazol-4-yl)-4H-pyrido[1,2-a]pyrimidin-4-one] yielded an IC50 of 3000 to 33000 nM. To `Cn1cc(-c2cc(=O)n3cc(N4CCNCC4)ccc3n2)cn1` [compound 192, 2-(1-methyl-1H-pyrazol-4-yl)-7-(piperazin-1-yl)-4H-pyrido[1,2-a]pyrimidin-4-one] belongs 3000 to 33000 nM; to `Cc1nc2ccc(-c3cc(=O)n4cc(N5CCNC(C)(C)C5)ccc4n3)cc2o1` [compound 194, 7-(3,3-dimethylpiperazin-1-yl)-2-(2-methyl-1,3-benzoxazol-6-yl)-4H-pyrido[1,2-a]pyrimidin-4-one], 3000 to 33000 nM.
